Test results: US20220280513A1, “ENHANCING THE ANTIVIRAL EFFICACY OF RNA VIRUS INHIBITION BY COMBINATION WITH MODULATORS OF PYRIMIDINE METABOLISM” (The Board of Trustees of the Leland Stanford Junior …, priority 2019, published 2022)
Like-named read-outs stand apart in the source and are kept apart here. Each block holds one molecule with its values, some of them ahead of it.

Assays:
recombinant human UCK2 = biological target: T1, recombinant human UCK2 (Homo sapiens, UniProt Q9BZX2); test: In vitro enzyme activity assay with recombinant human UCK2 (PK/LDH-coupled, UV 340 nm); format: biochemical; settings: for UCK2 substrate or not (ATP consumption): 250 μM analog in the presence of 50 μM uridine
T1 construct: 6xHis (C); made in house; host or cells: E. coli BL21(DE3)
T1 sequence (Q9BZX2 1-261): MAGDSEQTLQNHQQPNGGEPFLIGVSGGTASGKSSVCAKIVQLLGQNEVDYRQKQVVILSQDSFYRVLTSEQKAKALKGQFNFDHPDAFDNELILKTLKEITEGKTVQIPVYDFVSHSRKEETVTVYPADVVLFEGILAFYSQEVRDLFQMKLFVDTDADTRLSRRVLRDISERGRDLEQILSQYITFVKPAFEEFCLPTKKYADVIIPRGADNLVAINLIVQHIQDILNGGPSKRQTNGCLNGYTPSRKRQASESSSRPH
Text: (§1) In order to guide our SAR studies, we developed an enzymatic assay to evaluate the inhibitory effect of each CPU analog against recombinant human UCK2, which was expressed and purified in E. coli. A continuous assay system was optimized by coupling UCK2 activity to the pyruvate kinase (PK) reaction, which in turn was coupled to lactate dehydrogenase (LDH). Overall reaction progress was continuously monitored by detecting the UV absorption change at 340 nm, which was correlated with the ATP consumption by UCK2. The effect of 250 μM of each CPU analog on UCK2 activity was evaluated in the presence of 50 μM uridine. […] We then individually measured the steady state kinetic parameters of UCK2 using uridine, CPU and 5-F-CPU as substrates. Their KM values were 86, 25, and 41 μM, and their kcat/KM values were 2.6×10^5, 1.5×10^5, and 7.3×10^4 s^−1 M^−1 (FIG. 5B).
(§2) Cloning, expression and purification of recombinant human UCK2 and CMPK1: Uridine cytidine kinase 2 (UCK2) was cloned into the pET-21a(+) vector using Ndel and Notl as restriction sites. […] The resulting plasmid was transformed into E. coli BL21(DE3) cells by electroporation, recovered in SOC at 37° C. for 1 h and plated onto LB agar plates with kanamycin overnight at 37° C. A single, isolated colony was inoculated into 30 mL LB supplemented with 50 μg/mL kanamycin and grown at 37° C. with shaking for 15 h. The next day, these cells were used to inoculate 1 L autoclaved LB with 50 μg/mL kanamycin. The flask was shaken at 37° C. When an optical density (OD600) of 0.7 was reached, protein expression was induced with 0.5 mM isopropyl β-D-1-thiogalactopyranoside (IPTG). The temperature was changed to 18° C. and flasks were shaken for an additional 15 h. The cell pellets were collected by spinning the media at 5000 rpm for 10 min. The pellets obtained were frozen by liquid nitrogen and stored in −80° C. for protein purification. Cell pellets were thawed and resuspended in lysis buffer containing Tris (40 mM, pH 7.5), NaCl (10 mM), imidazole (10 mM), DTT (1 mM). Cells were lysed by sonication and centrifuged at 25,000 g for 1 h. The supernatant was incubated with a slurry of Ni-NTA resin for 1 h at 4° C. and loaded onto a column. The nickel column wash buffer was Tris (40 mM, pH 7.5), NaCl (10 mM), DTT (1 mM) and each wash step contained increasing concentrations of imidazole (10, 50, or 250 mM). After SDS-PAGE confirmation of the protein fractions, protein was further purified using fast protein liquid chromatography (FPLC) using buffer A (50 mM Tris-HCl pH 8, 1 mM dithiothreitol (DTT), 10% glycerol) and elution buffer B (50 mM Tris-HCl pH 8, 1mM dithiothreitol (DTT), 10% glycerol with 500 mM NaCl) with changing gradient over a 20 minute from 2% to 100% Buffer B. FPLC eluents containing the protein was concentrated using Am icon centrifugal filter with 3K cut-off and the enzyme was stored in storage buffer (50 mM Tris-HCl pH 7.5, 10% glycerol). Human cytidine monophosphate kinase 1 (CMPK1) was purified as previously described (Deans et al., 2016).
(§3) In vitro enzyme activity assays with recombinant human UCK2: To continuously monitor reaction progress spectrophotometrically, ATP hydrolysis was coupled to NADH oxidation via pyruvate kinase (PK) and lactate dehydrogenase (LDH). Reactions were conducted at room temperature in 100 μL in 96-well plates (Greiner Bio-One, UV-Star, Half Area). Mixtures contained 20 mM HEPES (pH 7.2), 100 mM KCl, 2 mM MgCl2, 300 μM ATP, 0-500 μM uridine, 0-500 μM CPU analogs, 10 nM UCK2, 1 mM phosphoenolpyruvate, 500 μM NADH and 20 units/mL of PK and LDH. Progress was monitored in the linear region using a Biotek Synergy HT and kinetic and inhibition constants were determined using GraphPad Prism 7 (GraphPad Software).

DENV-2 virus = test: DENV antiviral assay, DENV-Luc replication in A549 cells (FIGS. 8 and 9); format: cell-based, dengue serotype 2 (DENV-2) strain 16681
Protocol: DENV-Luc reporter virus generation: The design of the pDENV-Luc infectious clone derived from dengue serotype 2 (DENV-2) strain 16681 was described in detail by Marceau et al (Marceau et al., 2016). The plasmid was linearized with Xbal and in vitro transcribed into the genomic RNA of DENV-Luc virus using the T7 Megascript Kit (Ambion) in the presence of m7G(5′)ppp(5′)G RNA Cap Structure Analog (NEB). 5 μg DENV-Luc RNA was electroporated into 2×10^6 Vero cells. The transfected cells were resuspended with Dulbecco's modified Eagle's medium (DMEM; Invitrogen) with 10% FBS and 100 U/ml penicillin-streptomycin and transferred into a T-175 flask incubated at 37° C. with 5% CO2. Supernatants were collected and replenished with fresh medium every 24 h from day 17 to 24 post-transfection, pooled together, clarified by centrifugation and stored in aliquots at −80° C. The amount of infectious DENV-Luc virus in the stock was titrated using the TCID50 assay and calculated by the Spearman & Kärber algorithm as described previously (Hierholzer and Killington, 1996).
DENV antiviral assays (For FIGS. 8 and 9): A549 cells were plated overnight at 5,000 cells/well in 96-well plates in complete DMEM and incubated for 24 h at 37° C. Cells were then treated with pyrimidine de novo synthesis inhibitors, and/or salvage inhibitors, and/or R1479 in DMEM supplemented with 20 μM uridine. Four hours after drug addition, cells were infected with DENV-2 virus at a MOI=0.1. After 72 h, DENV-Luc replication was monitored by the production of Renilla luciferase, which was measured using the Renilla-Glo Luciferase Assay System (Promega) according to the specifications of the manufacturer. For the accompanying cell viability assay, A549 cells were seeded at 5,000 cells/well in 96-well plates in complete DMEM and incubated for 24 h at 37° C. Cell were then treated with pyrimidine de novo synthesis inhibitors, and/or salvage inhibitors, and/or R1479 in DMEM supplemented with 20 μM uridine. Following 48 h treatment, cell viability was monitored by ATP levels, which was measured using the CellTiter-Glo Luciferase Assay System (Promega) according to the specifications of the manufacturer.

[1] = substrate: O=c1ccn([C@@H]2C=C(CO)[C@@H](O)[C@H]2O)c(=O)[nH]1; test: In vitro enzyme activity assay with recombinant human UCK2 (PK/LDH-coupled, UV 340 nm); format: biochemical; settings: other: steady state kinetic parameters of UCK2 with the compound as substrate
Text: as §1, §2, §3

[2] = substrate: O=c1ccn([C@@H]2O[C@H](CO)[C@@H](O)[C@H]2O)c(=O)[nH]1; test: as above; format: biochemical; settings: other: steady state kinetic parameters of UCK2 with the compound as substrate
Text: as §1, §2, §3

[3] = substrate: O=c1[nH]c(=O)n([C@@H]2C=C(CO)[C@@H](O)[C@H]2O)cc1F; test: as above; format: biochemical; settings: other: steady state kinetic parameters of UCK2 with the compound as substrate
Text: as §1, §2, §3

Molecule: CC1=C[C@@H](n2ccc(=O)[nH]c2=O)[C@H](O)[C@@H]1O [5′-deoxy-CPU, 1-((1R,4R,5S)-4,5-dihydroxy-3-methylcyclopent-2-en-1-yl)pyrimidine-2,4(1H,3H)-dione]
UCK2 substrate or not (ATP consumption) (recombinant human UCK2): inhibitors but not substrates | Ki (recombinant human UCK2; competitive inhibitors of UCK2, Lineweaver-Burk analysis): 230 µM

UCK2 substrate or not (ATP consumption) (recombinant human UCK2): substrates of UCK2 | rate of UMP synthesis (recombinant human UCK2; added to assay mixture containing UCK2, uridine (50 μM) and ATP): dose-dependent decrease
Molecule: O=c1[nH]c(=O)n([C@@H]2C=C(CO)[C@@H](O)[C@H]2O)cc1F [5-F-CPU, 1-((1R,4R,5S)-4,5-dihydroxy-3-(hydroxymethyl)cyclopent-2-en-1-yl)-5-fluoropyrimidine-2,4(1H,3H)-dione]

Molecule: [N-]=[N+]=N[C@]1(CO)O[C@@H](n2ccc(N)nc2=O)[C@H](O)[C@@H]1O [R1479, 4′-azidocytidine]
influence of GSK983 alone on the antiviral activity of R1479 (DENV-2 virus; 1 μM GSK983 added, no CPU, 20 μM uridine): negligible influence | EC50 (DENV-2 virus; Dengue virus, DENV2, A549, 20 μM uridine, without GSK983 and CPU, read-out: EC50, inhibition of dengue virus replication, R1479 as single agent): ~35 µM | EC50 (DENV-2 virus; Dengue virus, DENV2, A549, in the presence of 250 μM CPU and 1 μM GSK983, 20 μM uridine, read-out: EC50 of R1479 in combination): ≤ 8 µM | EC50 (DENV-2 virus; in the presence of 250 μM CPU and 1 μM GSK983, 20 μM uridine, read-out: EC50 of R1479 in combination): ~8 µM

B1: recombinant human UCK2 (Homo sapiens) (protein)
chain: T1 sequence (Q9BZX2 1-261)
notes: 6xHis (C); made in house; host or cells: E. coli BL21(DE3)
Km [1]: 25 µM | kcat/Km [1]: 150000 M⁻¹ s⁻¹ | Km [2]: 86 µM | kcat/Km [2]: 260000 M⁻¹ s⁻¹ | Km [3]: 41 µM | kcat/Km [3]: 73000 M⁻¹ s⁻¹
